Measurements: publication PMC8528301 (PLoS ONE, 2021)
Where “and” joins values, the source holds several entries; their conditions need not be identical. Equal values may be shown once.

What was measured:
PXR = details: cited from earlier work
in vivo = details: female, C57BL/6, mouse, plasma, po, 2 mg/kg
Protocol: (§1) Blood was collected via saphenous/retro-orbital vein at time points: 0.25, 0.75, 0.5, 1, 1.5, 2, 4, 8, 16 hours after treatment. Three sets of mice were used for this experiment, where set 1 was sampled at 2,4,8 hr; set 2 at 0.25, 0.75, 1.5 hr; set 3 at 0.5, 1 and 16 hr. Samples were centrifuged at 10,000 rpm for 2 minutes, plasma was removed and stored at -80°C until further analysis.
(§2) Briefly, parameters and the Fisher Information Matrix (FIM) were estimated using the stochastic approximation expectation maximization (SAEM) algorithm, and the final log-likelihood estimated with importance sampling, all using the default Monolix initial settings, except that 1000 iterations were permitted for estimation of FIM using stochastic approximation. A variety of models were fit to the respective compound’s Ct data, parameterized using apparent clearances, volumes of distribution, and absorption rate constant as needed. […] A log-normal inter-individual and inter-occasion parameter distribution was assumed on selected supported parameters, with both on- and off-diagonal elements of parameter covariance matrices tested. Additive and/or proportional error models were tested and implemented as supported. Beal’s M3 method was used to fit any data that were below the LLOQ or above the upper limit of the assay range [20]. […] Additionally, Wald test P values were outputted for each covariate effect by the Monolix software.
(§3) Additionally, Wald test P values were outputted for each covariate effect by the Monolix software.

[1] = Plasma DEX concentrations on discontinuous oral DEX regimen in drinking water (Fig 3); format: in vivo, mouse; details: for concentration at 3.5 day / concentration at 10.5 day / concentration at 17.5 day: C57BL/6, mouse, oral, 8 mg/L, Dexamethasone conc; for observed systemic (plasma) concentrations of DEX, range: mice on the discontinuous DEX regimen
Protocol: 1 g/L of tetracycline (Sigma-Aldrich Inc, St. Louis, MO, USA) was added during both phases. Assuming that mice drink 5 mL of water per day, the dose they receive would be 1.6–2 mg/kg/day. […] At the end of in vivo procedures, all plasma samples were transferred from dry ice and stored at –80°C until analysis.
Sidak’s multiple comparison test (**p<0.01, ****p<0.0001) was used to further analyze the effect of vitamin D status at each time point.

[2] = DEX single oral gavage plasma pharmacokinetics (NLME modeling); details: for DV (Dex oral gavage PK raw data): individual mice;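 as to all read-outs here: plasma concentration-time data analysed by nonlinear mixed-effects modeling in Monolix with SAEM estimation, models built on apparent clearance, distribution volume and absorption rate constant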
Protocol: as §1, §2, §3

[3] = test system: BCR-ABL Arf-/- Luc+ ALL cells; experiment: Survival study of mice with BCR-ABL Arf-/- leukemia on discontinuous DEX regimen; format: in vivo, mouse; details: for median survival time: BCR-ABL Arf-/- ALL, discontinuous DEX
From the text: Murine BCR-ABL Arf^-/- Luc^+ ALL cells were created by Dr. Charles Sherr (St. Jude Children’s Research Hospital) and provided immediately prior to mouse injection by the laboratory of Dr. Mary Relling (St. Jude Children’s Research Hospital). The cells had been tested for mycoplasma and were authenticated by flow cytometry for cell surface markers, tested for their leukemia-inducing capabilities with serial dilutions of cell numbers (from 2 million down to 2,000 cells), and ensured that the cells with the luciferase constructs produced light when combined with luciferin. Only cells from early passage (P3-P15) were used for these experiments. The St Jude Children’s Research Hospital Institutional Biosafety Committee and IACUC approved the use of these cells for injection into mice. C57BL/6 VD3 sufficient (n = 24) and deficient (n = 22) male mice (8–18 wk of age) were anaesthetized using isoflurane and injected iv with 2,000 BCR-ABL Arf^-/- Luc^+ ALL cells on day zero. […] Xenogen IVIS-200 (Caliper Life Sciences, Hopkinton, MA) was used to acquire bioluminescent images 5 minutes post-intra peritoneal injection of 200 μL of 100 mg/kg D-Luciferin (Caliper Life Sciences, Hopkinton, MA). Mice were anaesthetized with isoflurane during this procedure. The bioluminescent signal (photons/s) from a fixed region of interest (ROI) is used to monitor the disease progression twice every week. Images acquired here were analyzed using Living Image 3.1 software (Caliper Life Sciences), where whole body luciferase flux measurements (photons/s) were quantified as disease burden. Animal Welfare: All efforts were taken to minimize suffering and distress in the survival studies. […] All other mice in the survival study were euthanized within hours of reaching the humane end point/end of study = moribund for any reason which was determined based on hind limb paralysis (very typically observed in mice with BCR-ABL ALL), scruffy coat, lethargy or an inability to obtain food or water (SJ IACUC protocol #100468–613). A portion of spleen and hind limb were fixed, paraffin embedded, cut, and slides stained with hematoxylin and eosin and evaluated by a St Jude Pathologist (Dr. Laura Janke) to confirm leukemia was the cause of death.

## C[C@@H]1C[C@H]2[C@@H]3CCC4=CC(=O)C=C[C@]4(C)[C@@]3(F)[C@@H](O)C[C@]2(C)[C@@]1(O)C(=O)CO [DEX, dexamethasone]
PXR; printed in Fig 9, ref Kliewer SA, et al. Cell. 1998
  EC50: 30 µM
PXR; relatively weak PXR agonist, no reference given, read-out: Kd as PXR agonist
  Kd: ~30 µM
In vivo
  concentration at 2 h: 676 ng/mL
[1]; discontinuous DEX in drinking water, assuming mice drink 200–400 μl/hr
  estimated Cgut (gut concentration): 7 to 10 µM and 7.6 to 10.1 µM
[1]; female, plasma, avg, VD3 deficient, D3.5, n=5
  concentration at 3.5 day: 78 nM
[1]; female, plasma, avg, VD3 deficient, D10.5, n=4
  concentration at 10.5 day: 63 nM
[1]; female, plasma, avg, VD3 deficient, D17.5, n=4
  concentration at 17.5 day: 58.5 nM
[1]; female, plasma, avg, VD3 sufficient, D3.5, n=5
  concentration at 3.5 day: 99.3 nM
[1]; female, plasma, avg, VD3 sufficient, D10.5, n=4
  concentration at 10.5 day: 52.7 nM
[1]; female, plasma, avg, VD3 sufficient, D17.5, n=5
  concentration at 17.5 day: 38.7 nM
[1]; female, plasma, individual mouse, VD3 deficient (GCD), D10.5
  concentration at 10.5 day: 58.6 nM
[1]; female, plasma, individual mouse, VD3 sufficient (MRE), D3.5
  concentration at 3.5 day: 95.6 nM
[1]; female, plasma, individual mouse, VD3 sufficient (MRE), D10.5
  concentration at 10.5 day: 49.9 nM
[1]; male, plasma, avg, plasma, male, VD3 deficient, day 3.5, n=8
  concentration at 3.5 day: 31.7 nM
[1]; male, plasma, avg, plasma, male, VD3 deficient, day 10.5, n=13
  concentration at 10.5 day: 25.3 nM
[1]; male, plasma, avg, plasma, male, VD3 deficient, day 17.5, n=13
  concentration at 17.5 day: 13.1 nM
[1]; male, plasma, avg, plasma, male, VD3 sufficient, day 3.5, n=11
  concentration at 3.5 day: 12.4 nM
[1]; male, plasma, avg, plasma, male, VD3 sufficient, day 10.5, n=11
  concentration at 10.5 day: 18 nM
[1]; male, plasma, avg, plasma, male, VD3 sufficient, day 17.5, n=11
  concentration at 17.5 day: 13.3 nM
[1]
  observed systemic (plasma) concentrations of DEX, range: 2.6 to 201.5 nM
[1]; listed as Dexamethasone
  observed systemic (plasma) concentrations of DEX, range: 2 to 200 nM
[1]; plasma, female, VD3 deficient (GCD), D3.5
  Dexamethasone conc, individual mouse: 88.42 nM and 34.10 nM and 126.21 nM and 104.66 nM and 36.85 nM
[1]; plasma, female, VD3 deficient (GCD), D10.5
  Dexamethasone conc, individual mouse: 55.47 nM and 71.15 nM and 66.95 nM
[1]; plasma, female, VD3 deficient (GCD), D17.5
  Dexamethasone conc, individual mouse: 84.72 nM and 78.40 nM and 26.56 nM and 44.39 nM
[1]; plasma, female, VD3 sufficient (MRE), D3.5
  Dexamethasone conc, individual mouse: 94.88 nM and 116.14 nM and 126.22 nM and 63.45 nM
[1]; plasma, female, VD3 sufficient (MRE), D10.5
  Dexamethasone conc, individual mouse: 50.92 nM and 57.26 nM
[1]; plasma, female, VD3 sufficient (MRE), D17.5
  Dexamethasone conc, individual mouse: 24.99 nM and 23.28 nM and 21.33 nM and 61.18 nM and 62.62 nM
[1]; plasma, male, VD3 deficient (GCD), 3.5 Days, discontinuous DEX in drinking water
  Dexamethasone conc, individual mouse: 28.49 nM and 21.78 nM and 23.16 nM and 14.22 nM and 52.94 nM and 69.07 nM and 12.19 nM
[1]; plasma, male, VD3 deficient (GCD), 10.5 Days
  Dexamethasone conc, individual mouse: 24.64 nM and 18.60 nM and 35.12 nM and 50.14 nM and 22.77 nM and 19.09 nM and 13.20 nM and 32.61 nM and 4.50 nM and 20.98 nM and 51.76 nM and 9.92 nM
[1]; plasma, male, VD3 deficient (GCD), 17.5 Days
  Dexamethasone conc, individual mouse: 7.03 nM and 9.03 nM and 37.95 nM and 11.09 nM and 12.27 nM and 10.43 nM and 10.75 nM and 8.20 nM and 7.99 nM and 10.52 nM and 14.43 nM and 17.77 nM
[1]; plasma, male, VD3 deficient, day 3.5, n=8
  Dexamethasone conc, avg: 31.70 nM
[1]; plasma, male, VD3 sufficient (MRE), 3.5 Days
  Dexamethasone conc, individual mouse: 10.97 nM and 6.41 nM and 7.05 nM and BLQ (BLQ = BELOW the LLOQ, lower lmit of quantification = 5 nM dexamethasone) and 3.62 nM and 34.11 nM
[1]; plasma, male, VD3 sufficient (MRE), 10.5 Days
  Dexamethasone conc, individual mouse: 56.24 nM and 2.95 nM and 2.63 nM and 10.01 nM and 12.14 nM and BLQ (BLQ = BELOW the LLOQ, lower lmit of quantification = 5 nM dexamethasone) and 34.37 nM and 7.89 nM
[1]; plasma, male, VD3 sufficient (MRE), 17.5 Days
  Dexamethasone conc, individual mouse: 9.70 nM and 6.19 nM and 17.34 nM and 10.75 nM and 11.40 nM and 11.09 nM and 17.17 nM and 6.62 nM and 29.23 nM
[2]; single oral gavage
  estimated Cgut (gut concentration): 200 µM
[2]; single oral gavage 2 mg/kg DEX phosphate, regardless of VD3 status
  higher CL/F in males vs females: ~ 25%
[2]; single oral gavage 2 mg/kg dexamethasone phosphate, 14 weeks
  lower AUC values in males vs females: approximately 25%
[2]; single oral gavage, regardless of VD3 status
  apparent oral clearance (CL/F), male vs female: 1.26 fold
[2]; time 0.25, SEX:F, VD3_DEF:0
  DV (Dex oral gavage PK raw data): 907.64 and 982.88
[2]; time 0.25, SEX:M, VD3_DEF:0
  DV (Dex oral gavage PK raw data): 359.52 and 381.14 and 918.28 and 295.91
[2]; time 0.5, SEX:F, VD3_DEF:0
  DV (Dex oral gavage PK raw data): 300.45 and 875.91 and 827.78 and 1011.08 and 796.28
[2]; time 0.5, SEX:M, VD3_DEF:0
  DV (Dex oral gavage PK raw data): 854.61 and 443.3 and 391.17 and 812.36 and 581.49
[2]; time 0.75, SEX:F, VD3_DEF:0
  DV (Dex oral gavage PK raw data): 593 and 696.57 and 716.27
[2]; time 0.75, SEX:M, VD3_DEF:0
  DV (Dex oral gavage PK raw data): 319 and 407.15 and 712.45 and 358.52
[2]; time 1, SEX:F, VD3_DEF:0
  DV (Dex oral gavage PK raw data): 323.98 and 614.7 and 559.39 and 858.7 and 572.77
[2]; time 1, SEX:M, VD3_DEF:0
  DV (Dex oral gavage PK raw data): 871.76 and 446.29 and 284.95 and 564.36 and 379.97
[2]; time 1.5, SEX:F, VD3_DEF:0
  DV (Dex oral gavage PK raw data): 400.31 and 458.1 and 520.89
[2]; time 1.5, SEX:M, VD3_DEF:0
  DV (Dex oral gavage PK raw data): 262.55 and 317.69 and 754.41 and 324.39
[2]; time 2, SEX:F, VD3_DEF:0
  DV (Dex oral gavage PK raw data): 620.12 and 492.72 and 552.22 and 715.36
[2]; time 2, SEX:M, VD3_DEF:0
  DV (Dex oral gavage PK raw data): 450.54 and 344.89 and 388.67 and 378.66 and 784.19
[2]; time 2, SEX:M, VD3_DEF:1
  DV (Dex oral gavage PK raw data): 453.95 and 476.24
[2]; time 4, SEX:F, VD3_DEF:0
  DV (Dex oral gavage PK raw data): 375.42 and 312.44 and 291.92 and 312.42 and 297.86
[2]; time 4, SEX:M, VD3_DEF:0
  DV (Dex oral gavage PK raw data): 215.15 and 191.38 and 191.07 and 239.97 and 623.74
[2]; time 4, SEX:M, VD3_DEF:1
  DV (Dex oral gavage PK raw data): 214.6 and 240.73 and 185.34
[2]; time 8, SEX:F, VD3_DEF:0
  DV (Dex oral gavage PK raw data): 121.36 and 89.26 and 221.1 and 152.45 and 67.95
[2]; time 8, SEX:M, VD3_DEF:0
  DV (Dex oral gavage PK raw data): 74.87 and 61.36 and 52.11 and 112.04 and 269.34
[2]; time 8, SEX:M, VD3_DEF:1
  DV (Dex oral gavage PK raw data): 66.26 and 72.8
[2]; time 16, SEX:F, VD3_DEF:0
  DV (Dex oral gavage PK raw data): 29.97 and 65.92 and 14.35 and 7.95 and 53.43
[2]; time 16, SEX:M, VD3_DEF:0
  DV (Dex oral gavage PK raw data): 18.43 and 25.62 and 92.79 and 13.68 and 19.85
[3]; DEX-treated VD3 deficient male mice
  median survival time: 59 days
[3]; DEX-treated VD3 sufficient male mice
  median survival time: 36 days
[3]; VD3 Deficient, days survived 0
  Survival proportions: 100
[3]; VD3 Deficient, days survived 22
  Survival proportions: 90.5
[3]; VD3 Deficient, days survived 24
  Survival proportions: 85.7
[3]; VD3 Deficient, days survived 32
  Survival proportions: 81
[3]; VD3 Deficient, days survived 36
  Survival proportions: 76.2
[3]; VD3 Deficient, days survived 38
  Survival proportions: 71.4
[3]; VD3 Deficient, days survived 48
  Survival proportions: 61.9
[3]; VD3 Deficient, days survived 55
  Survival proportions: 57.1
[3]; VD3 Deficient, days survived 59
  Survival proportions: 47.6
[3]; VD3 Sufficient, days survived 0
  Survival proportions: 100
[3]; VD3 Sufficient, days survived 15
  Survival proportions: 90.9
[3]; VD3 Sufficient, days survived 22
  Survival proportions: 86.4
[3]; VD3 Sufficient, days survived 23
  Survival proportions: 81.8
[3]; VD3 Sufficient, days survived 25
  Survival proportions: 72.7
[3]; VD3 Sufficient, days survived 32
  Survival proportions: 63.6
[3]; VD3 Sufficient, days survived 34
  Survival proportions: 59.1
[3]; VD3 Sufficient, days survived 35
  Survival proportions: 54.5
[3]; VD3 Sufficient, days survived 37
  Survival proportions: 45.5
[3]; VD3 Sufficient, days survived 38
  Survival proportions: 40.9
[3]; VD3 Sufficient, days survived 48
  Survival proportions: 27.3
[3]; VD3 Sufficient, days survived 55
  Survival proportions: 22.7
[3]; VD3 Sufficient, days survived 59
  Survival proportions: 18.2
